# From ChEMBL document CHEMBL1201862, “PubChem BioAssay data set” (2004)
# The source made the active and inactive calls.
# Tests used:
# [1] = biological target: T1, Microphthalmia-associated transcription factor (Homo sapiens, UniProt O75030); assay: reducers of TRPM1 reporter luminescence, concentration series – cell-based, SK-MEL-5, cherry-picked, set 3, MITF inhibitor project, dose response (AID 493073); assay type: functional;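 note: SK-MEL-5 melanoma cells with luciferase driven by the MITF target TRPM1 promoter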
# T1 sequence (O75030 whole entry): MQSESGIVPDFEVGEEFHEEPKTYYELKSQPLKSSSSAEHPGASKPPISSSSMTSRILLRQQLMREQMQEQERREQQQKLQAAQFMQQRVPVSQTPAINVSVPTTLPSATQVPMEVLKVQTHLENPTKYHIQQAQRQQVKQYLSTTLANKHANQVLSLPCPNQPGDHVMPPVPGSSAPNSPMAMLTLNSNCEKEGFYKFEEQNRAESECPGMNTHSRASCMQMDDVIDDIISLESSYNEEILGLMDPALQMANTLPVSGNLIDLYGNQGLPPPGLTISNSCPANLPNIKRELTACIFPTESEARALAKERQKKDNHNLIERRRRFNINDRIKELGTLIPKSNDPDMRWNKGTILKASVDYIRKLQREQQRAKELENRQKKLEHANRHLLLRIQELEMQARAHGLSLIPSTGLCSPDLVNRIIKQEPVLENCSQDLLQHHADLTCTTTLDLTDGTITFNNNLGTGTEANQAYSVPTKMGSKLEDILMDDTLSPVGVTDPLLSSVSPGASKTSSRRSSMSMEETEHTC
# Saccharomyces cerevisiae = assay: S. cerevisiae Caspase-1/ASC signal blockers IC50, NALP1 inhibitor project selectivity test (AID 488863); assay type: functional, organism-based
# HEK293 [2] = assay: cells; assay type: functional, cell-based; settings: Homo sapiens
# [3] = fluconazole-exposed Candida albicans growth modulators – fluorescence, retest, confirmation (AID 2467); assay type: functional, cell-based
# HEK293 [4] = assay: NOD2 signaling inhibitors in MDP-stimulated cells, cell-based, uHTS, luminescence (AID 2001); assay type: functional; settings: Homo sapiens
# [5] = NIH-3T3 fibroblast cytotoxicity, dose response, cytotoxicity control, cell-based, fluorescence, Alamar Blue, secondary assay (AID 2327); assay type: functional;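 note: NIH-3T3 mouse fibroblasts cultured with fluconazole at 8 µg/mL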
# [6] = biological target: NACHT, LRR and PYD domains-containing protein 1 (Homo sapiens, UniProt Q9C000); assay: NALP1 inhibitors in yeast, dose response, luminescent (AID 488860); assay type: functional
# [7] = biological target: FAD-linked sulfhydryl oxidase ALR (Homo sapiens, UniProt P55789); assay: ALR-catalysed DTT oxidation blockers – biochemical, H2O2 detection, luminescence, cherry-pick, dose response (AID 493248)
# [8] = biological target: Nucleotide-binding oligomerization domain-containing protein 2 (Homo sapiens, UniProt Q9HC29); assay: inhibition of NOD2-driven NF-kB reporter – cell-based, luminescence, uHTS, HEK293 (AID 1566); assay type: functional
# HEK293 [9] = assay: cells; assay type: functional, cell-based; settings: Homo sapiens; remark: listed apart in the source
# HEK293 [10] = assay: inhibition of NOD1-driven NF-kB reporter – cell-based, luminescence, uHTS, primary screen (AID 1578); assay type: functional; settings: Homo sapiens
# HEK293 [11] = assay: cells; assay type: functional, cell-based; settings: Homo sapiens; remark: listed apart in the source
# [12] = biological target: DNA dC->dU-editing enzyme APOBEC-3A (Homo sapiens, UniProt P31941); assay: A3A deaminase inhibition for selectivity – biochemical, dose response (AID 504722); assay type: functional
# [13] = biological target: DNA dC->dU-editing enzyme APOBEC-3G (Homo sapiens, UniProt Q9HC16); assay: Dose Response confirmation of small molecule APOBEC3G DNA Deaminase Inhibitors via a fluorescence-based single-stranded DNA deaminase assay. [Related pubchem assays (depositor defined):AID493012, AID493028]; assay type: functional
# [14] = biological target: Cystic fibrosis transmembrane conductance regulator/Golgi-associated PDZ and coiled-coil motif-containing protein (Homo sapiens, UniProt P13569+Q9HD26); assay: potency against CAL PDZ-peptide interaction – biochemical, fluorescence polarization, Cerulean-tagged CAL PDZ, cherry-picks, dose response (AID 504773)
# [15] = biological target: Neurotensin receptor type 1 (Homo sapiens, UniProt P30989); assay type: functional;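 note: Image-based confirmatory dose-response assay measuring agonist activity at NTR1; NTR1-expressing U2OS osteosarcoma cells imaged for beta-arrestin GFP spot formation; agonist potency where compounds increase beta-arrestin recruitment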
# Protein RecA = biological target: T2, Protein RecA (Mycobacterium tuberculosis, UniProt P9WHJ3); assay: Fluorescence Cell-Free Homogeneous Dose Retest to Identify Inhibitors of RecA-Intein Splicing Activity. [Related pubchem assays (depositor defined):AID2097, AID2223, AID489010, AID492950]; assay type: functional
# T2 sequence (P9WHJ3 whole entry): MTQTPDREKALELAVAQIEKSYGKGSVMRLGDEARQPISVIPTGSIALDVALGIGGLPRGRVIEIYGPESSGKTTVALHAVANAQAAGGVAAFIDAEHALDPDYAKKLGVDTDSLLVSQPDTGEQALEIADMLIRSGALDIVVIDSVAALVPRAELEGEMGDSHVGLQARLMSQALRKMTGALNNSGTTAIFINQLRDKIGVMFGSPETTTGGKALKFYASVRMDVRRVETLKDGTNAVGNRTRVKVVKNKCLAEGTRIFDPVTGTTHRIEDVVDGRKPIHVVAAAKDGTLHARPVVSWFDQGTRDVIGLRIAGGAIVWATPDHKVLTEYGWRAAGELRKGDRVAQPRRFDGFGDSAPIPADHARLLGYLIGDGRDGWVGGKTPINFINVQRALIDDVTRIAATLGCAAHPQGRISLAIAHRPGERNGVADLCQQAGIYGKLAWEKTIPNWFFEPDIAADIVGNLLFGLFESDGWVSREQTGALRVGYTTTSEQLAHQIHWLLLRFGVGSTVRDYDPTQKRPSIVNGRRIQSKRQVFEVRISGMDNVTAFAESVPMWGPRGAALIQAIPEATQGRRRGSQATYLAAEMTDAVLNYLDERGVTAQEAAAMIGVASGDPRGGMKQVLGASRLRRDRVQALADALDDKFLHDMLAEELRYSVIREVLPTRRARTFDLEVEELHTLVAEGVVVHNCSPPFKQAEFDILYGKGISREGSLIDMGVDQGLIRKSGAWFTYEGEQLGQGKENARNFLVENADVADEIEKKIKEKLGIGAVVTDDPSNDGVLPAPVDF
# [16] = biological target: T3, Replicative DNA helicase DnaB (Mycobacterium tuberculosis, UniProt P9WMR3); assay: DnaB intein splicing inhibitors, dose response, biochemical, cell-free fluorescence (AID 449749); assay type: functional
# T3 sequence (P9WMR3 whole entry): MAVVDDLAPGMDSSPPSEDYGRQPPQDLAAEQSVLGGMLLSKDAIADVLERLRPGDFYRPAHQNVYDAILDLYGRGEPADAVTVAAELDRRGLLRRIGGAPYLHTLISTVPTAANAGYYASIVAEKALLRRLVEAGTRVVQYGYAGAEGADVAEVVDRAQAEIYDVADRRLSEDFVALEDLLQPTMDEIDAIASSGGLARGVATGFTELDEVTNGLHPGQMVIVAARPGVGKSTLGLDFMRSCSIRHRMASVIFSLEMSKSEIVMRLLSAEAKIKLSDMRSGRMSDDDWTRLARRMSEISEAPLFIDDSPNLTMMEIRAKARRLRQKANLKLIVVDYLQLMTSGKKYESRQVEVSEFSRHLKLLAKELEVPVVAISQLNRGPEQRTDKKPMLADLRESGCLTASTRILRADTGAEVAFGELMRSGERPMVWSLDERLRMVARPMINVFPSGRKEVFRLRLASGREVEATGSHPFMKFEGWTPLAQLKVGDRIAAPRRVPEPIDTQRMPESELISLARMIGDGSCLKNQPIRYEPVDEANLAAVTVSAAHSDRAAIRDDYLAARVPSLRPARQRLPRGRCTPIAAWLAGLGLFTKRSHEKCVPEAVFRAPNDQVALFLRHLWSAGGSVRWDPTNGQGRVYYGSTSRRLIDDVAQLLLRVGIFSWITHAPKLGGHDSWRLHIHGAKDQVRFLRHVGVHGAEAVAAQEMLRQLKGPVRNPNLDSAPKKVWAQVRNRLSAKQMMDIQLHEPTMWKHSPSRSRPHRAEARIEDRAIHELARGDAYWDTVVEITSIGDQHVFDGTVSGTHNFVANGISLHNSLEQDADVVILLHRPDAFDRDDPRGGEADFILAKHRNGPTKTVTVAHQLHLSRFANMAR
# X-box-binding protein 1 = X-box-binding protein 1 (Homo sapiens, UniProt P17861); assay type: functional, Cricetulus griseus;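 note: confirmatory dose-response counter-screen serving a CHOP assay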
# [17] = biological target: T4, Tyrosine-protein phosphatase non-receptor type 7 (Homo sapiens, UniProt P35236); assay type: functional
# T4 sequence (P35236 whole entry): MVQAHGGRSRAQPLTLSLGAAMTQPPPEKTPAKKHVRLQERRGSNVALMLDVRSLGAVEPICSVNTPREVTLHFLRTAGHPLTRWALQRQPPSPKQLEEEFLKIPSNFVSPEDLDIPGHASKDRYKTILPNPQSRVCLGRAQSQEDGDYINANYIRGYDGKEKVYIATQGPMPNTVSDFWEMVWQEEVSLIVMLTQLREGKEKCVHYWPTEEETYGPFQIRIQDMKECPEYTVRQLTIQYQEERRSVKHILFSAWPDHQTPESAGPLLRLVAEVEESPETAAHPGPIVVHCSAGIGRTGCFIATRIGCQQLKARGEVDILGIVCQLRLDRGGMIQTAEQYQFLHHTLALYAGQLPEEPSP
# [18] = biological target: Glyceraldehyde-3-phosphate dehydrogenase (Homo sapiens, UniProt P04406)
# [19] = biological target: Heat shock 70 kDa protein 1A (Homo sapiens, UniProt P0DMV8); assay: inhibition of Hsp70 binding activity – biochemical, fluorescence polarization, SAR follow-up (AID 1072)
# [20] = biological target: T5, Dual specificity protein phosphatase 6 (Rattus norvegicus, UniProt Q64346); assay type: functional
# T5 sequence (Q64346 whole entry): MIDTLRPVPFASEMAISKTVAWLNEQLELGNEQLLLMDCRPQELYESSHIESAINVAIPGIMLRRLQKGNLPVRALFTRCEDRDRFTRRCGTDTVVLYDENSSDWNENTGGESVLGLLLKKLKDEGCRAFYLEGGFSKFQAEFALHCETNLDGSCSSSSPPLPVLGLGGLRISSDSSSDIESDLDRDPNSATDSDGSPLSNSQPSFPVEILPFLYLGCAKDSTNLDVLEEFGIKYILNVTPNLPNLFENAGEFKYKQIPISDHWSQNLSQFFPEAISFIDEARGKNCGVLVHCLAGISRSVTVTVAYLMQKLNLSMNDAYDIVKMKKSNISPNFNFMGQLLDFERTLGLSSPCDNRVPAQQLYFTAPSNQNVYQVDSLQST
# [21] = biological target: Heat shock cognate 71 kDa protein (Homo sapiens, UniProt P11142); assay: In Vitro Hsc70 Dose Response Fluorescence Polarization Assay. [Related pubchem assays: 1072 ]
# [22] = biological target: T5, Dual specificity protein phosphatase 6
# [23] = biological target: G-protein coupled receptor 55 (Homo sapiens, UniProt Q9Y2T6); assay: SAR Analysis of Selective Antagonists of GPR55 using an Image-Based Assay - Set 3. [Related pubchem assays (depositor defined):AID2058, AID2079]; assay type: functional
# [24] = biological target: G-protein coupled receptor 35 (Homo sapiens, UniProt Q9HC97); assay: SAR analysis of Antagonists of the GPR35 Receptor using an Image-Based Assay - Set 5. [Related pubchem assays (depositor defined):AID2058, AID2079]; assay type: functional
# Beta-galactosidase = Beta-galactosidase (Escherichia coli, UniProt Q8VNN2); assay: detection-enzyme interference by beta-gal modulators – biochemical, E. coli enzyme, set 3, artefact control for CCR6 antagonist project, dose response (AID 504712); assay type: functional
# [25] = biological target: C-C chemokine receptor type 6 (Homo sapiens, UniProt P51684); assay: antagonism of CCR6 beta-arrestin recruitment – cell-based, luminescent beta-arrestin readout, dose response (AID 504728); assay type: functional
# [26] = viability loss in THP-1 monocytes – THP-1 cells, cytotoxicity control for Vif-APOBEC3G degradation inhibitor project, dose response (AID 1117359); assay type: functional; settings: THP-1
# [27] = biological target: Voltage-dependent T-type calcium channel subunit alpha-1H (Homo sapiens, UniProt O95180); assay: human CACNA1H calcium influx blockade – cell-based, synthetic library set 1, calcium flux (AID 493022); assay type: functional
# FAD-linked sulfhydryl oxidase ALR, sequence (P55789 whole entry, the tested form may be a part): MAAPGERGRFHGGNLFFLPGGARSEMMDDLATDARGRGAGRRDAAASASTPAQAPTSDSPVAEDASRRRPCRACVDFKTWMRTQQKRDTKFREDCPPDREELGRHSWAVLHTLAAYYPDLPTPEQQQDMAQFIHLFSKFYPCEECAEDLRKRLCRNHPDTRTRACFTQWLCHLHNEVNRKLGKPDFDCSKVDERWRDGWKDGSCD
# C-C chemokine receptor type 6, sequence (P51684 whole entry): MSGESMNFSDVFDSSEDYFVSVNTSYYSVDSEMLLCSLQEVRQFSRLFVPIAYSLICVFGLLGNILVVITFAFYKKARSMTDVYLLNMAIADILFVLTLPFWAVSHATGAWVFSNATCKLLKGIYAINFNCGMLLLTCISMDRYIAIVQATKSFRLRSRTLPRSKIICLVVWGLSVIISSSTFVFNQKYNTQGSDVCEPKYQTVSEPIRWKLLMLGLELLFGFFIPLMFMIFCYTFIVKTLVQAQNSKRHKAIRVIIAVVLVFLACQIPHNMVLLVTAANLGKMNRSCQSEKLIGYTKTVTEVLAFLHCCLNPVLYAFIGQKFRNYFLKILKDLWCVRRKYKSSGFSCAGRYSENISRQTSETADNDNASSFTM
# Heat shock cognate 71 kDa protein, sequence (P11142 whole entry): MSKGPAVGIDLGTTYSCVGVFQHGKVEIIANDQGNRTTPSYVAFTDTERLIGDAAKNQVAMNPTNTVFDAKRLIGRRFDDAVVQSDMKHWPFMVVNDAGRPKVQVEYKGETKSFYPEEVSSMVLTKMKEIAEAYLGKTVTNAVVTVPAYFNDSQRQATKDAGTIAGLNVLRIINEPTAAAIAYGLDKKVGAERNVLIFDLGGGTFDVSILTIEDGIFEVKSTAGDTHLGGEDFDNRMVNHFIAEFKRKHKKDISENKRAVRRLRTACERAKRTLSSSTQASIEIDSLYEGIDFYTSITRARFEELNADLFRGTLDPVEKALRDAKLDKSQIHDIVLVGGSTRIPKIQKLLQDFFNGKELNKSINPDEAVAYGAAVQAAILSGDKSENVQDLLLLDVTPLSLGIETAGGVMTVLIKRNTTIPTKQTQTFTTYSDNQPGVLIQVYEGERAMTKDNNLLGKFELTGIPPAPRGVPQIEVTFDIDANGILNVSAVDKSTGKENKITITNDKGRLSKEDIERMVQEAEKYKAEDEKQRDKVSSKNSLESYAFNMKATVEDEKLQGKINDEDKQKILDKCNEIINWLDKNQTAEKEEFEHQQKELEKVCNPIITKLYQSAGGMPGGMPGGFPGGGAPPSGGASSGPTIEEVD
# Nucleotide-binding oligomerization domain-containing protein 2, sequence (Q9HC29 whole entry, the tested form may be a part): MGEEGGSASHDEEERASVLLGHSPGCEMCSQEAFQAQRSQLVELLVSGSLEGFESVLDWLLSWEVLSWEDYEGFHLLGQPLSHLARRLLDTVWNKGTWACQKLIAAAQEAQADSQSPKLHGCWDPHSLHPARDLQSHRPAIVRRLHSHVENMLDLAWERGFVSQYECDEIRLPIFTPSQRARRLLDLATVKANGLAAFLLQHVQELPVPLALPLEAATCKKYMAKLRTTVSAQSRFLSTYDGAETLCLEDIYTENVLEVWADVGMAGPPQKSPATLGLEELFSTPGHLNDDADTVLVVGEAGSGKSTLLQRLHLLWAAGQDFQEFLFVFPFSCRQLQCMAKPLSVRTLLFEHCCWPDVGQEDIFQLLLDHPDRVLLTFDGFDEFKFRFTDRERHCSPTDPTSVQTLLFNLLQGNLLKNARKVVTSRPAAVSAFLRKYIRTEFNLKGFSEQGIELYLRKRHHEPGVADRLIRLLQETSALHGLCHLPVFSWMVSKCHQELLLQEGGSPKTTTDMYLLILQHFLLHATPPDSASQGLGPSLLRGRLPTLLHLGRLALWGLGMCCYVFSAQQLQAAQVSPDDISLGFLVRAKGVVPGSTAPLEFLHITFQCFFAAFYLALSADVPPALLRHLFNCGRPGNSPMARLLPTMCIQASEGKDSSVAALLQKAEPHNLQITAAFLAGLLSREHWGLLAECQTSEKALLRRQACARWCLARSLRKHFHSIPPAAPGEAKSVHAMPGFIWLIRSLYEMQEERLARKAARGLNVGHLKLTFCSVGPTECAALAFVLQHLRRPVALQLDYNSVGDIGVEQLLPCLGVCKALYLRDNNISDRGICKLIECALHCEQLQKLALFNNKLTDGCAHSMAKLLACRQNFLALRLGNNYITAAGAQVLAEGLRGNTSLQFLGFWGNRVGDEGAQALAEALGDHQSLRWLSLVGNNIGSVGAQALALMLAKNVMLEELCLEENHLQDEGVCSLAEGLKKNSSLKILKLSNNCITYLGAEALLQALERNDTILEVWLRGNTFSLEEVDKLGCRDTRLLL
# Neurotensin receptor type 1, sequence (P30989 whole entry): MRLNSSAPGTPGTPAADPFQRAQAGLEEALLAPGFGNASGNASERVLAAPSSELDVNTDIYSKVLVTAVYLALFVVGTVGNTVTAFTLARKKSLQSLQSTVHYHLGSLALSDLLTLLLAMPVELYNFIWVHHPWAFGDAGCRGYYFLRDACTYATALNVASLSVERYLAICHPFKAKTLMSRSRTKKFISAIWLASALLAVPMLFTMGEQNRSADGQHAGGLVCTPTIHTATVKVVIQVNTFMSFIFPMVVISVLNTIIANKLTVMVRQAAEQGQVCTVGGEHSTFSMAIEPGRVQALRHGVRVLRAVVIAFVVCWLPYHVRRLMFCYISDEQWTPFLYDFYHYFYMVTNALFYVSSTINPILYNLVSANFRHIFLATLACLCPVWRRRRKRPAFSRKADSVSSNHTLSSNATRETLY
# DNA dC->dU-editing enzyme APOBEC-3A, sequence (P31941 whole entry): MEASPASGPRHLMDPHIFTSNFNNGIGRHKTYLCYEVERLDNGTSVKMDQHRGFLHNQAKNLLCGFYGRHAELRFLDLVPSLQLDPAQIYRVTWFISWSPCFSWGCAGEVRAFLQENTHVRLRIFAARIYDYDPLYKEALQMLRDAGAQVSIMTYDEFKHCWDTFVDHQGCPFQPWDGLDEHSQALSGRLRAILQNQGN
# DNA dC->dU-editing enzyme APOBEC-3G, sequence (Q9HC16 whole entry): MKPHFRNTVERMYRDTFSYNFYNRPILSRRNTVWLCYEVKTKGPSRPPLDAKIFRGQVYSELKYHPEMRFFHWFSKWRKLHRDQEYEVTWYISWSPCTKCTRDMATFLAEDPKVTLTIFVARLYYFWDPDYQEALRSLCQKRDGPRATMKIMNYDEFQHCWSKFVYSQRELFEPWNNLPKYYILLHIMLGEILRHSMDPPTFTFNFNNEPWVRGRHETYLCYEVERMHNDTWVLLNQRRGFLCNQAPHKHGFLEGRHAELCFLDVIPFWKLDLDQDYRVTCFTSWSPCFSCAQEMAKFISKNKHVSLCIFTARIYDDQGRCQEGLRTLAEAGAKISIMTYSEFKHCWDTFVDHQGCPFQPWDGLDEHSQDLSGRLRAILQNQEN
# Heat shock 70 kDa protein 1A, sequence (P0DMV8 whole entry): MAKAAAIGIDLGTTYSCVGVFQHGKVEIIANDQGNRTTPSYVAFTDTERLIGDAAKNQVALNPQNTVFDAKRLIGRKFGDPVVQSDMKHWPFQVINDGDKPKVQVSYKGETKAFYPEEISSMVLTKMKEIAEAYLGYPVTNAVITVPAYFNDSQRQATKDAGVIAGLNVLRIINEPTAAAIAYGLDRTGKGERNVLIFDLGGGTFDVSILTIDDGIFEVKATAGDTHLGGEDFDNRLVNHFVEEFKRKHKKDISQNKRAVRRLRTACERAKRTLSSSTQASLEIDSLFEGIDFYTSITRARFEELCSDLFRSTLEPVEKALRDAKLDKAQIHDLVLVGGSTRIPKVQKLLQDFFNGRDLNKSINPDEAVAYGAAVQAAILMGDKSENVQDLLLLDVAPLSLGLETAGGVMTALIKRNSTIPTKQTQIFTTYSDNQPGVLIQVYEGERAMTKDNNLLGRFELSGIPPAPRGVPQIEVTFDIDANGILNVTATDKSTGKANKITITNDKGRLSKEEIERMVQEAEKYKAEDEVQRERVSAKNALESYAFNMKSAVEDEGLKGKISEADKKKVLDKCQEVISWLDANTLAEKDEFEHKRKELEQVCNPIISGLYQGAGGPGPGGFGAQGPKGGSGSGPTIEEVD
# Beta-galactosidase, sequence (Q8VNN2 whole entry): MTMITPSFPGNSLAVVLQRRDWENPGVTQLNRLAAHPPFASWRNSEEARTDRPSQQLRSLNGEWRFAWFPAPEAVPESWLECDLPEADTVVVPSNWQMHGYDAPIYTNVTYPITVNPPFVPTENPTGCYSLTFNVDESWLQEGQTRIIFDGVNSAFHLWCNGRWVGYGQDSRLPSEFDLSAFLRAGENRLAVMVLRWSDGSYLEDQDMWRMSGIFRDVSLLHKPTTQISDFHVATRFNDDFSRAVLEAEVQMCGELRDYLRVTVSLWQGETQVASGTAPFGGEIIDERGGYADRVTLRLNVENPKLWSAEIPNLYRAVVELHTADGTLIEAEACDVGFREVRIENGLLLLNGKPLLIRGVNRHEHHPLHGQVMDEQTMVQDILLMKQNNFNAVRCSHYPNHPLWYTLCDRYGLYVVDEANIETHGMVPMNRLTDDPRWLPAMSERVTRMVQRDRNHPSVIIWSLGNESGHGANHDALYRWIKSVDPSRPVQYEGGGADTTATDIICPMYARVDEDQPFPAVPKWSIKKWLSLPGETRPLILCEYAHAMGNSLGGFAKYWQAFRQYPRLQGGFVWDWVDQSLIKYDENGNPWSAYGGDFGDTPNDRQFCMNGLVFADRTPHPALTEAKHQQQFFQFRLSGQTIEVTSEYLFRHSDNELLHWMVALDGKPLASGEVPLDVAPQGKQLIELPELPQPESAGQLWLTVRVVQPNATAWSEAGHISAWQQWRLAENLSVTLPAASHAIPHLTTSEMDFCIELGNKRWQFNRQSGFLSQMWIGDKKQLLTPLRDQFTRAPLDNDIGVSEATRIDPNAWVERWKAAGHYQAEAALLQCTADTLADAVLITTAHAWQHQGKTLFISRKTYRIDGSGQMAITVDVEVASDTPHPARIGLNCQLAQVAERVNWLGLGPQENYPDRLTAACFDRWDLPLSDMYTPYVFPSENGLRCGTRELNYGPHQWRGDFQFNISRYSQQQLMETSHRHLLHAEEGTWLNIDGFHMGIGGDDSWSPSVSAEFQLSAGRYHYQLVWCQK
smiles,measurement,setting,value
Nc1ccc(Oc2cccc(Oc3ccc(N)cc3)c2)cc1,AC50,[1],1.1 µM (active)
same,IC50,Saccharomyces cerevisiae,10.2 µM (active)
same,IC50,HEK293 [2],> 20 µM (inactive)
same,EC50,[3],> 38 µM (not active)
same,IC50,HEK293 [4],3.05 µM (active)
same,EC50,[5],> 150 µM (inactive)
same,IC50,[6],15.3 µM (active)
same,AC50,[7],0.677 µM (active)
same,EC50,[8],1.85 µM (active)
same,IC50,HEK293 [9],1.61 µM (active)
same,EC50,HEK293 [10],5.94 µM (active)
same,IC50,HEK293 [11],19.9 µM (active)
S=c1[nH]nc(-c2ccco2)n1C1CCCCC1,IC50,[12],> 100 µM (inactive)
same,IC50,[13],4.08 µM (active)
same,AC50,[7],5.64 µM (active)
Nc1ncnc2c1C(c1ccccc1)c1c(ccc3ccccc13)O2 (configuration not stated),AC50,[14],11.2 µM (active)
CSc1nnc(NC(=O)C23CC4CC(CC(C4)C2)C3)s1,EC50,[15],8.21 µM (active)
same,EC50,Protein RecA,> 380 µM (inactive)
same,AC50,[16],> 380 µM (inactive)
CNc1nc(Sc2cccc(C(F)(F)F)c2)cc(C(F)(F)F)n1,Absolute IC50 (XBP1),X-box-binding protein 1,10 µM
O=C(Oc1ccc2ccccc2c1)c1ccc2c(c1)C1C=CCC1C(C(=O)O)N2 (configuration not stated),IC50,[17],2.04 µM (active)
same,IC50,[18],76.8 µM (active)
same,IC50,[19],43.9 µM (active)
same,IC50,[20],24.7 µM (active)
same,IC50,[21],95.2 µM (active)
same,IC50,[22],20.3 µM (active)
COC(=O)c1cnn(-c2ccc(F)cc2F)c1/C=N/NC(=S)Nc1ccccc1,IC50,[23],> 32 µM (inactive)
same,IC50,[24],0.379 µM (active)
CC(=O)OC(C)C1C2=C(C(=O)CC1(C)O)C(=O)c1c(ccc(-c3ccc4c(c3O)C(=O)C3=C(C4=O)C(C(C)OC(C)=O)C(C)(O)CC3=O)c1O)C2=O (configuration not stated),IC50,Beta-galactosidase,> 66.6 µM (inactive)
same,IC50,[25],> 66.6 µM (inactive)
same,CC50,[26],19.3 µM (active)
CC(Oc1ccccc1)C(=O)Nc1nnc(-c2ccc3c(c2)CCCC3)o1 (configuration not stated),EC50,[27],1.3 µM (active)
